Assay results taken from patent US20090162351A1, “Transdiscal administration of inhibitors of p38 MAP kinase” (DePuy Spine, Inc., priority 2007, published 2009).
Read-outs that look alike come from different tables or passages of the source.

Legend:
[1] = tested on: aggrecan and collagen type 2 mRNA in bovine AF and NP cells; assay: 3D in vitro disc cell model: Taqman gene expression; type: cell-based; conditions: 10 ng/ml IL-1β; inhibitor 1 μM, rhGDF-5 200 ng/ml
Source text: Three-dimensional in vitro annulus fibrosis (AF) and nucleus pulposus (NP) models were established to investigate proteoglycan modulation and changes in gene expression in response to inflammatory cytokines such as interleukin-1 (e.g., IL-1β) and potential therapeutic agents such as growth and differentiation factor (GDF-5), and p38 MAP kinase inhibitors. AF and NP cells from bovine caudal discs were isolated by enzymatic digestion and seeded (2×10^6 cells/cm^2) onto Millipore CM filters coated with Collagen Type II and cultured in DMEM/20% heat-inactivated FBS, 100 ug/ml ascorbic acid and 5 ng/ml TGFβ1. […] Results were evaluated by histology (Tol. Blue staining was used to observe matrix production). Dimethylmethylene blue (DMMB) was used to detect sulphated glycosaminoglycans in a GAG/DNA assay. Taqman analysis was performed on aggrecans (AGG), collagen type 1 (col-1), collagen type 2 (col-2), and MMP 3, MMP 9 and MMP 13. In FIGS. 19A-C and 20A-C, annulus fibrosus and nucleus pulposus cells from bovine caudal discs were isolated by enzymatic digestion and seeded (2×10^6 cells/cm2) onto Millipore CM filters coated with Collagen Type II and cultured in DMEM/20% heat-inactivated FBS/100 ug/ml ascorbic acid and 5 ng/ml TGF-β1.

[2] = tested on: LPS-induced IL-1 in hPBMC; assay: LPS-induced IL-1 in hPBMC; type: cell-based, human; conditions: read-out: inhibitor of LPS-induced IL-1 in hPBMC, IC50
CYP2C9 = CYP2C9 (Homo sapiens, UniProt P11712); assay: CYP2C9 inhibition; type: in vitro ADME
Chain of CYP2C9 (P11712 whole entry): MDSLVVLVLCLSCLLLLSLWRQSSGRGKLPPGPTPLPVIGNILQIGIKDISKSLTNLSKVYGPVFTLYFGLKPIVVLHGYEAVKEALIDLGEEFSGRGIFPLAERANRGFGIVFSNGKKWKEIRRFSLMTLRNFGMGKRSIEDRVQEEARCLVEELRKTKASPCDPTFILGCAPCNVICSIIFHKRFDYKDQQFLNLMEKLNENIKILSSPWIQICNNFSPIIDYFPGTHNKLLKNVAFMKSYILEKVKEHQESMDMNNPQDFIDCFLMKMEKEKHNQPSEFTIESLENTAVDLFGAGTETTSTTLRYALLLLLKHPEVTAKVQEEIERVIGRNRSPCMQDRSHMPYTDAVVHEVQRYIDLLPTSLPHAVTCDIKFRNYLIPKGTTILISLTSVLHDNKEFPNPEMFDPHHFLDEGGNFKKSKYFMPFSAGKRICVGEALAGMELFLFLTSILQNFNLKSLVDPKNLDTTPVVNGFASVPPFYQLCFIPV

Monkey PK = conditions: in vivo, female monkey
6 CYP450 = assay: Inhibition of 6 CYP450; type: in vitro ADME

OCCC#Cc1nc(-c2ccc(F)cc2)c(-c2ccncc2)n1CCCc1ccccc1 [JNJ 3026582 (RWJ 67657), 4-[4-(4-fluorophenyl)-1-(3-phenylpropyl)-5-(4-pyridinyl)-1H-imidazol-2-yl]-3-butyn-1-ol]
gene expression of Agg and Col 2 (in words) [1]: restored

CC(=O)N1CCN(c2c(-c3ccncc3)c(-c3ccc(F)cc3)c(C#N)n2C)CC1 [JNJ 17089540 (RWJ 669307)]
IC50 [2]: 0.25 µM

C[C@@H]1CN(Cc2ccc(F)cc2)[C@@H](C)CN1C(=O)c1cc2cc(C(=O)C(=O)N(C)C)[nH]c2cc1Cl [SCIO-282 (SD 282)]
IC50 (CYP2C9): 0.5 µM

C[C@@H]1CN(Cc2ccc(F)cc2)[C@@H](C)CN1C(=O)c1cc2c(C(=O)C(=O)N(C)C)cn(C)c2cc1Cl [SCIO-469 (SD 469)]
bioavailability (Monkey PK; read-out: Monkey (F) PK, F %): 12%
half-life (Monkey PK; read-out: Monkey (F) PK, t1/2 (converted)): 1.3 h
IC50 (6 CYP450): > 1 µM
IC50 (6 CYP450; human, Table 2): > 1 µM
